In ChEMBL document CHEMBL1201862, “PubChem BioAssay data set” (2004):
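Method: 48-hour compound exposure of cells in 96-well plates, five concentrations, linear interpolation of endpoints. GI50 = concentration required for 50% inhibition of growth.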 Calls of active or inactive are those of the source. No stated cut-off is given here; in the data, active = GI50 up to about 1.1 µM and inactive = higher.

Legend:
Assay in all cases: NCI-60 cell line screen, 48 h
MDA-MB-231 = tested on: MDA-MB-231
IGROV-1 = tested on: IGROV-1
MDA-N = tested on: MDA-N
OVCAR-3 = tested on: OVCAR-3
NCI-H522 = tested on: NCI-H522
UO-31 = tested on: UO-31
PC-3 = tested on: PC-3
HCT-116 = tested on: HCT-116
TK-10 = tested on: TK-10
U-251 = tested on: U-251
KM12 = tested on: KM12
CCRF-CEM = tested on: CCRF-CEM
SF-539 = tested on: SF-539
OVCAR-5 = tested on: OVCAR-5
HCT-15 = tested on: HCT-15
A498 = tested on: A498
K562 = tested on: K562
SK-MEL-28 = tested on: SK-MEL-28
SK-MEL-2 = tested on: SK-MEL-2
SR = tested on: SR

| SMILES | GI50 (MDA-MB-231) | GI50 (IGROV-1) | GI50 (MDA-N) | GI50 (OVCAR-3) | GI50 (NCI-H522) | GI50 (UO-31) | GI50 (PC-3) | GI50 (HCT-116) | GI50 (TK-10) | GI50 (U-251) | GI50 (KM12) | GI50 (CCRF-CEM) | GI50 (SF-539) | GI50 (OVCAR-5) | GI50 (HCT-15) [µM] | GI50 (A498) | GI50 (K562) | GI50 (SK-MEL-28) | GI50 (SK-MEL-2) | GI50 (SR) |
| --- | --- | --- | --- | --- | --- | --- | --- | --- | --- | --- | --- | --- | --- | --- | --- | --- | --- | --- | --- | --- |
| O=C1C(Cl)=C(Cl)C(Cl)(Cl)C(Cl)C1(Cl)Cl (stereo not given) | 20 µM (inactive) | 17 µM (inactive) | 23.7 µM (inactive) | 17.7 µM (inactive) | 13.7 µM (inactive) | 15.8 µM (inactive) | 25 µM (inactive) | 18.8 µM (inactive) | 19.5 µM (inactive) | 19 µM (inactive) | 20.1 µM (inactive) | 27.3 µM (inactive) | 17.5 µM (inactive) | 23.2 µM (inactive) | 29.6 | 15.2 µM (inactive) | 24.6 µM (inactive) | 23.5 µM (inactive) | 15.8 µM (inactive) |  |
| O=c1c2c(c1=O)C1(SCCCS1)c1cc(Cl)ccc1O2 | > 100 µM (inactive) | > 100 µM (inactive) | > 100 µM (inactive) | > 100 µM (inactive) | > 100 µM (inactive) | > 100 µM (inactive) | > 100 µM (inactive) | > 100 µM (inactive) | > 100 µM (inactive) | > 100 µM (inactive) | > 100 µM (inactive) | > 100 µM (inactive) | > 100 µM (inactive) | > 100 µM (inactive) | > 100 | > 100 µM (inactive) | > 100 µM (inactive) | > 100 µM (inactive) | > 100 µM (inactive) |  |
| COc1ccc(-c2ccc(C(=O)C=P(c3ccccc3)(c3ccccc3)c3ccccc3)cc2)cc1 | 15.9 µM (inactive) |  | 13.2 µM (inactive) | 3.41 µM (inactive) |  | 3.13 µM (inactive) | 7.55 µM (inactive) | 12.4 µM (inactive) | 10.8 µM (inactive) | 13 µM (inactive) | 13.7 µM (inactive) | 5.52 µM (inactive) | 17.7 µM (inactive) | 16.6 µM (inactive) | 8.59 | 12.2 µM (inactive) | 5 µM (inactive) | 14.8 µM (inactive) |  | 16.2 µM (inactive) |
| Cc1nn(C2OC(CO)C(O)C(F)C2O)c(=O)[nH]c1=O (stereo not given) | > 100 µM (inactive) |  | > 100 µM (inactive) | > 100 µM (inactive) | > 100 µM (inactive) | > 100 µM (inactive) | > 100 µM (inactive) | > 100 µM (inactive) | > 100 µM (inactive) | > 100 µM (inactive) |  | > 100 µM (inactive) | > 100 µM (inactive) | > 100 µM (inactive) | > 100 | > 100 µM (inactive) | > 100 µM (inactive) | > 100 µM (inactive) | > 100 µM (inactive) |  |
| CON(C)C(=O)[C@H]1C[C@@]1(C)CO | > 100 µM (inactive) | > 100 µM (inactive) | > 100 µM (inactive) | > 100 µM (inactive) |  | > 100 µM (inactive) | > 100 µM (inactive) | > 100 µM (inactive) | > 100 µM (inactive) | > 100 µM (inactive) | > 100 µM (inactive) | > 100 µM (inactive) |  | > 100 µM (inactive) | > 100 | > 100 µM (inactive) | > 100 µM (inactive) | > 100 µM (inactive) | > 100 µM (inactive) | > 100 µM (inactive) |
| CC1(C)CN=C(Nc2ccc(Cl)cc2)S1 | > 100 µM (inactive) | > 100 µM (inactive) | > 100 µM (inactive) | 71.9 µM (inactive) | > 100 µM (inactive) | 37.2 µM (inactive) | > 100 µM (inactive) | 69.5 µM (inactive) | 65.8 µM (inactive) | > 100 µM (inactive) | 90.4 µM (inactive) | 74.3 µM (inactive) | > 100 µM (inactive) | > 100 µM (inactive) | > 100 |  | > 100 µM (inactive) | > 100 µM (inactive) | > 100 µM (inactive) | 65.6 µM (inactive) |
| Cn1c2ccccc2c(=NNc2ccccc2C(=O)O)c2ccccc21 | 16.9 µM (inactive) | 24.2 µM (inactive) | 21.2 µM (inactive) | 10.8 µM (inactive) | 12 µM (inactive) | 18.4 µM (inactive) | 12.3 µM (inactive) | 13.5 µM (inactive) | 32.1 µM (inactive) | 7.03 µM (inactive) | 12.7 µM (inactive) | 13.2 µM (inactive) | 13.1 µM (inactive) | 30.3 µM (inactive) | 7.87 |  | 8.97 µM (inactive) | 20.2 µM (inactive) | 18.7 µM (inactive) | 11.9 µM (inactive) |
| O=C(n1[nH]c(=O)n(-c2ccc([N+](=O)[O-])cc2)c1=O)C(Cl)(Cl)Cl | > 75 µM (inactive) | > 75 µM (inactive) | > 75 µM (inactive) | > 75 µM (inactive) | > 75 µM (inactive) | > 75 µM (inactive) | > 75 µM (inactive) | > 75 µM (inactive) | > 75 µM (inactive) | > 75 µM (inactive) | > 75 µM (inactive) |  |  | > 75 µM (inactive) | > 75 |  | > 75 µM (inactive) | > 75 µM (inactive) | > 75 µM (inactive) | > 75 µM (inactive) |
